This passage reports Km results from paper PMC2762193 (Journal of the American Chemical Society, 2009).

The experiment has as its target wtTaq polymerase (Thermus aquaticus, UniProt P19821). In words: gel-based steady-state single nucleotide incorporation, […]-labelled primer. To be noted: 1 x Taq buffer, 60 °C. It counts as biochemical.

Sequence of wtTaq polymerase (P19821 whole entry): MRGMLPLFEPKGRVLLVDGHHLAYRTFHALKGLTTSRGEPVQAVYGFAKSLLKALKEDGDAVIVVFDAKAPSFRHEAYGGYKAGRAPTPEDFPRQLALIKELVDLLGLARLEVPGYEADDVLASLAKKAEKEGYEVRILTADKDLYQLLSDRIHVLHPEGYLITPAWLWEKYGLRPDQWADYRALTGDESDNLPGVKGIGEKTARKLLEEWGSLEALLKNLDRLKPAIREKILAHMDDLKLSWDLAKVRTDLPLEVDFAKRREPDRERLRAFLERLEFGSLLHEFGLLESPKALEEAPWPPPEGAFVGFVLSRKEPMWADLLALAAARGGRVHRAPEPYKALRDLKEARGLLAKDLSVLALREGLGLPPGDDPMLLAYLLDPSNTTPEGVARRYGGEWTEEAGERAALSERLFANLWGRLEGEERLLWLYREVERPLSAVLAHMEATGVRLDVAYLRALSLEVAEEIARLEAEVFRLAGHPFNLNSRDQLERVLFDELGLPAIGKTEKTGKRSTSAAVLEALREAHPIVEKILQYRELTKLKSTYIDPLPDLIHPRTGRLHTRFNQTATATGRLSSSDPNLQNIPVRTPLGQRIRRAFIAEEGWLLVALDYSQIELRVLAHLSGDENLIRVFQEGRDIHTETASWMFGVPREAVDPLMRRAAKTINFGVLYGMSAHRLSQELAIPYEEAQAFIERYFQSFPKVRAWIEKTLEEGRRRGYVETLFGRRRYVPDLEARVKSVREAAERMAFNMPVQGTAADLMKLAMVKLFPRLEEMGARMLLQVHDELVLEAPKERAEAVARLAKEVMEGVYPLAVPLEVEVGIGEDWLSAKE

As for `Nc1ncnc2c1ncn2[C@H]1C[C@H](O)[C@@H](COP(=O)(O)OP(=O)(O)OP(=O)(O)O)O1` [dATP], the Km result (opposite template d5NI or d5NIC) is “incorporation of dNTPs opposite template d5NIC”.
As to `Nc1nc2c(ncn2[C@H]2C[C@H](O)[C@@H](COP(=O)(O)OP(=O)(O)OP(=O)(O)O)O2)c(=O)[nH]1` [dGTP], under “opposite template dC”, the Km result is on record as “incorporation of dTTP opposite dA or dGTP opposite dC”.
As for `Cc1cn([C@H]2C[C@H](O)[C@@H](COP(=O)(O)OP(=O)(O)OP(=O)(O)O)O2)c(=O)[nH]c1=O` [dTTP], the Km result (opposite template dA) was “incorporation of dTTP opposite dA or dGTP opposite dC”.
